{"source": "the kinase profiling compilation of Christmann-Franck et al. (2016)", "test_in_all_cases": "radiometric filter-binding kinase assay", "key": {"ABL1 (human)": {"biological_target": "ABL1 (human) (UniProt P00519)"}, "[1]": {"test_system": "AKT2 (human), P31751 [S474D]", "sequence (P31751 whole entry S474D, looked up)": "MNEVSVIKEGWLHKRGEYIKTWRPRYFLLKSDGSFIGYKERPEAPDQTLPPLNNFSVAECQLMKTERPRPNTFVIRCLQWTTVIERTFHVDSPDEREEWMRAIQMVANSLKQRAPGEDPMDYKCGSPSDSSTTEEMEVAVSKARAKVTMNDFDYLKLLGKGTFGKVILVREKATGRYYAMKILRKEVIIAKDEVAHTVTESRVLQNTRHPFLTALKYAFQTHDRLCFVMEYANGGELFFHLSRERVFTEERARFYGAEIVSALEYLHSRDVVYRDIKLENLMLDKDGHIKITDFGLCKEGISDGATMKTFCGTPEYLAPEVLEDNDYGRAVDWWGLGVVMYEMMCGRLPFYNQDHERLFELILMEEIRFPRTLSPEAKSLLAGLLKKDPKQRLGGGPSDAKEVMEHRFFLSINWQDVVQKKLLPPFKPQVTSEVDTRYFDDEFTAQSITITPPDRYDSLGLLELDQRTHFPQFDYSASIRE"}, "AURKB (human)": {"biological_target": "AURKB (human) (UniProt Q96GD4)", "sequence (Q96GD4 whole entry, looked up)": "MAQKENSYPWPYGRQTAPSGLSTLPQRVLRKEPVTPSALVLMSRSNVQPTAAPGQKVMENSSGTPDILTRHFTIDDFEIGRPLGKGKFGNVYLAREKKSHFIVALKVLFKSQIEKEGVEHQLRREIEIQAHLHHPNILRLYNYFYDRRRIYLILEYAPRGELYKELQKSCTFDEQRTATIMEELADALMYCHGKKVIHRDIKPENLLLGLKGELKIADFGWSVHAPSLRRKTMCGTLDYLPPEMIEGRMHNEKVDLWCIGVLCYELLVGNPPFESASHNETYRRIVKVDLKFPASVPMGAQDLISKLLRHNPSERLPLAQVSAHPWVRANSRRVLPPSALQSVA"}, "BRSK2 (human)": {"biological_target": "BRSK2 (human) (UniProt Q8IWQ3)"}, "BTK (human)": {"biological_target": "BTK (human) (UniProt Q06187)"}, "CDK2 CCNA2 (human)": {"biological_target": "CDK2 CCNA2 (human) (UniProt P20248+P24941)"}, "CDK9 CCNT1 (human)": {"biological_target": "CDK9 CCNT1 (human) (UniProt P50750+O60563)"}, "CSK (human)": {"biological_target": "CSK (human) (UniProt P41240)"}, "DYRK2 (human)": {"biological_target": "DYRK2 (human) (UniProt Q92630)", "sequence (Q92630 whole entry, looked up)": "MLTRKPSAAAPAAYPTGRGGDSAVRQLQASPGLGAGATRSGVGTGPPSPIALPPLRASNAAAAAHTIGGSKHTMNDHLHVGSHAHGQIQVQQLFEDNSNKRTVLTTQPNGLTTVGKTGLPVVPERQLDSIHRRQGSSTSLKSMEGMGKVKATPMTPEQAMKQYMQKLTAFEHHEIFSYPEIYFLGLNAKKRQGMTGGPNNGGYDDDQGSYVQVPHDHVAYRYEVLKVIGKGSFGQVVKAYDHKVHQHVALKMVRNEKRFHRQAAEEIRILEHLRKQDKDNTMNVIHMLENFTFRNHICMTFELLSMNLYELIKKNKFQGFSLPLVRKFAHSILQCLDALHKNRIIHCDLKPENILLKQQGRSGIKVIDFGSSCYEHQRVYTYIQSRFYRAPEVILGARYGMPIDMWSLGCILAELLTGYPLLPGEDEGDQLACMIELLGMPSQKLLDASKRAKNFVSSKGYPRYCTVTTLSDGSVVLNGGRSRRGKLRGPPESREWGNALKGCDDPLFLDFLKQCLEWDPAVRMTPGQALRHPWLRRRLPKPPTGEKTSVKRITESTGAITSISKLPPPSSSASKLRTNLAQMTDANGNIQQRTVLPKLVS"}, "EPHB2 (human)": {"biological_target": "EPHB2 (human) (UniProt P29323)", "sequence (P29323 whole entry, looked up)": "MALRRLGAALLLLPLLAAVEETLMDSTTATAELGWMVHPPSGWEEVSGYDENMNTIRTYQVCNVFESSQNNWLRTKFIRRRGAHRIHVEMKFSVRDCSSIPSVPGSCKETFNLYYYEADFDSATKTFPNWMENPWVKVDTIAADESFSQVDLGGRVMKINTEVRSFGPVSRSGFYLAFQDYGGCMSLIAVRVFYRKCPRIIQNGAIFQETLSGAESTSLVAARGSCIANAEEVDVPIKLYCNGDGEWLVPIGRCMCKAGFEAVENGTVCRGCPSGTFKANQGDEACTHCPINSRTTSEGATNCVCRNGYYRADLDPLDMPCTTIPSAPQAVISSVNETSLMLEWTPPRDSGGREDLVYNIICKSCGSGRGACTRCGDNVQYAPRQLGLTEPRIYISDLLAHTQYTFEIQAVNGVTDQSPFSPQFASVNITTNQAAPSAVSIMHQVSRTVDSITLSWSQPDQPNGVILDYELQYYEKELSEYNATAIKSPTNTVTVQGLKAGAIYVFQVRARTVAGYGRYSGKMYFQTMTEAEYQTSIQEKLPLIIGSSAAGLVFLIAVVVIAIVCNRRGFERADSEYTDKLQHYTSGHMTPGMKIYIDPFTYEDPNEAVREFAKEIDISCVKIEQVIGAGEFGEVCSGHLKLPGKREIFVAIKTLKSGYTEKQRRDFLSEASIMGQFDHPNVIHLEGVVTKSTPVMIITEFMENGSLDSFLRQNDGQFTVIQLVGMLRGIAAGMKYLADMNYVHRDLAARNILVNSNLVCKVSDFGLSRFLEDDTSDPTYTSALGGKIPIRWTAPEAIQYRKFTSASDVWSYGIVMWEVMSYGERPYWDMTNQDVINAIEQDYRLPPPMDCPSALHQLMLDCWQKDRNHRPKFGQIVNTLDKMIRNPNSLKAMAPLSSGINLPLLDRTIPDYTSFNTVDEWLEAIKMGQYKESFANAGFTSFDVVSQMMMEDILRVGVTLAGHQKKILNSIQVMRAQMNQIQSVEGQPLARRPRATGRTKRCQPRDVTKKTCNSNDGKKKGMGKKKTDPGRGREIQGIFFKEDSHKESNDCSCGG"}, "HIPK2 (human)": {"biological_target": "HIPK2 (human) (UniProt Q9H2X6)"}, "LCK (mouse)": {"test_system": "LCK (mouse)", "details": "accession and sequence are those of the human protein"}, "MAP3K5 (human)": {"biological_target": "MAP3K5 (human) (UniProt Q99683)", "details": "compound 10.0 µM"}, "MAP4K5 (human)": {"biological_target": "MAP4K5 (human) (UniProt Q9Y4K4)"}, "MAPK1 (human)": {"biological_target": "MAPK1 (human) (UniProt P28482)"}, "MAPK10 (human)": {"biological_target": "MAPK10 (human) (UniProt P53779)"}, "MAPK11 (human)": {"biological_target": "MAPK11 (human) (UniProt Q15759)", "sequence (Q15759 whole entry, looked up)": "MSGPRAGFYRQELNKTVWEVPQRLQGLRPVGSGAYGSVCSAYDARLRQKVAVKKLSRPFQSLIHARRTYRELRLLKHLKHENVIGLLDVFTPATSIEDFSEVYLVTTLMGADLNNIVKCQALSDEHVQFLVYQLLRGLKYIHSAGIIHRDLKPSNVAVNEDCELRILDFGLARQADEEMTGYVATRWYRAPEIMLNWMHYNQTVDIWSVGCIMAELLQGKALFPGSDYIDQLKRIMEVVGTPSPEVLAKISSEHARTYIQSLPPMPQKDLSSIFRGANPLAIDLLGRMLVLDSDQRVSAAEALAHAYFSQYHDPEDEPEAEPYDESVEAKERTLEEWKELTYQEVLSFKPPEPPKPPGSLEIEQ"}, "MAPKAPK3 (human)": {"biological_target": "MAPKAPK3 (human) (UniProt Q16644)"}, "MINK1 (human)": {"biological_target": "MINK1 (human) (UniProt Q8N4C8)"}, "MST4 (human)": {"biological_target": "MST4 (human) (UniProt Q9P289)", "sequence (Q9P289 whole entry, looked up)": "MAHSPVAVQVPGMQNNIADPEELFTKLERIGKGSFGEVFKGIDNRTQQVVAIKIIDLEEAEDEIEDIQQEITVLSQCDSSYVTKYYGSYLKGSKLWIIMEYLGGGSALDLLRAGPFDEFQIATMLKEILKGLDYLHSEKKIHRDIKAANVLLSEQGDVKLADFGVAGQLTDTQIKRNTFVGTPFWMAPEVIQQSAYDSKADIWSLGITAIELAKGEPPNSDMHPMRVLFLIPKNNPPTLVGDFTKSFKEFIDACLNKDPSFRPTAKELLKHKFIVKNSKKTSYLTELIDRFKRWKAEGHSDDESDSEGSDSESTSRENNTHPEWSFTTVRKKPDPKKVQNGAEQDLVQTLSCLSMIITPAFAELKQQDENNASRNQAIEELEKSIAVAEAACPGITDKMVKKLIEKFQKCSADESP"}, "[2]": {"test_system": "PAK2 (human), Q13177 [T402E]"}, "PAK4 (human)": {"biological_target": "PAK4 (human) (UniProt O96013)"}, "PAK7 (human)": {"biological_target": "PAK7 (human) (UniProt Q9P286)", "details": "compound 1.0 µM"}, "PHKG1 (human)": {"biological_target": "PHKG1 (human) (UniProt Q16816)", "sequence (Q16816 whole entry, looked up)": "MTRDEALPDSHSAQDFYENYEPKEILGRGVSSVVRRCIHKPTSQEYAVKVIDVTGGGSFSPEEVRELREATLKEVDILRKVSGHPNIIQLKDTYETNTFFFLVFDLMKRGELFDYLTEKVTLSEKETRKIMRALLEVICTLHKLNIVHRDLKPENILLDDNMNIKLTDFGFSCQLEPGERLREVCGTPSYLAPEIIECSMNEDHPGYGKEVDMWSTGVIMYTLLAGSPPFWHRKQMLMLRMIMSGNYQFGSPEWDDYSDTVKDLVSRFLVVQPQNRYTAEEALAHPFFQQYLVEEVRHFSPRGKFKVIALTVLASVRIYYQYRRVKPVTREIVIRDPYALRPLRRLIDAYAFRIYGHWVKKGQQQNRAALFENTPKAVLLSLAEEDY"}, "PIM3 (human)": {"biological_target": "PIM3 (human) (UniProt Q86V86)"}, "PRKACA (human)": {"biological_target": "PRKACA (human) (UniProt P17612)"}, "TAOK1 (human)": {"biological_target": "TAOK1 (human) (UniProt Q7L7X3)"}, "TSSK1B (human)": {"biological_target": "TSSK1B (human) (UniProt Q9BXA7)"}, "TTBK2 (human)": {"biological_target": "TTBK2 (human) (UniProt Q6IQ55)"}, "ULK2 (human)": {"biological_target": "ULK2 (human) (UniProt Q8IYT8)", "sequence (Q8IYT8 whole entry, looked up)": "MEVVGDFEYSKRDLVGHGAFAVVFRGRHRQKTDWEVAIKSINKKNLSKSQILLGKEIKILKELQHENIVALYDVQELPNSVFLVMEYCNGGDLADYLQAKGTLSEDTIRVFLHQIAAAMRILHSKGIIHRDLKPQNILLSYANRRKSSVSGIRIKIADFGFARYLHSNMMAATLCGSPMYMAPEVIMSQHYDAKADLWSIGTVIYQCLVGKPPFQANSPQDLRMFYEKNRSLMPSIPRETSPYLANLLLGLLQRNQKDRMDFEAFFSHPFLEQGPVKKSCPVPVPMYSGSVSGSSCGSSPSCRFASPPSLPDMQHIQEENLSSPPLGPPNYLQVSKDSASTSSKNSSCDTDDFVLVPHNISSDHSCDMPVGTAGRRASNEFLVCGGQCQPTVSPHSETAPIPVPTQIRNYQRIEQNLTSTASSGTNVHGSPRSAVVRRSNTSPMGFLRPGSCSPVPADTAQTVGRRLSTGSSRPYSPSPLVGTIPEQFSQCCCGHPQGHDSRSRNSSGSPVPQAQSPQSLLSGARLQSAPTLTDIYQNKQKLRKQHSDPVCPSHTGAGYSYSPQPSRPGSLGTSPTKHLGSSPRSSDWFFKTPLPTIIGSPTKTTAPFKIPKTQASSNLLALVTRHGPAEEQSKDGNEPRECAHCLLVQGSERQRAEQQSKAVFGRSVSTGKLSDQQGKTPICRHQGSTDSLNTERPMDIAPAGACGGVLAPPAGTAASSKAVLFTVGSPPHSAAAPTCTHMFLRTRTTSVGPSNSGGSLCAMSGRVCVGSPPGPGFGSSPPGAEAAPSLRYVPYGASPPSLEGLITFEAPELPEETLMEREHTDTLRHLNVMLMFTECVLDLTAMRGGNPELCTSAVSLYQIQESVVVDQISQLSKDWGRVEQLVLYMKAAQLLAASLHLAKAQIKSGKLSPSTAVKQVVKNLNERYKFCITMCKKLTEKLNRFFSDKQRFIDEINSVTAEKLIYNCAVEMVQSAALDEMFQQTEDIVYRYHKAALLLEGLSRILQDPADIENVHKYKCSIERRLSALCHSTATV"}, "WNK1 (human)": {"biological_target": "WNK1 (human) (UniProt Q9H4A3)"}, "ZAP70 (human)": {"biological_target": "ZAP70 (human) (UniProt P43403)"}}, "data": [{"smiles": "CNc1nc(Nc2ccc(C(=O)N3CCOCC3)cc2OC)ncc1Cl", "values": [{"measurement": "residual activity", "setting": "ABL1 (human); compound 1.0 µM", "value": 84, "unit": "%"}, {"measurement": "residual activity", "setting": "ABL1 (human); compound 10.0 µM", "value": 86, "unit": "%"}, {"measurement": "residual activity", "setting": "[1]; compound 1.0 µM", "value": 95, "unit": "%"}, {"measurement": "residual activity", "setting": "[1]; compound 10.0 µM", "value": 64, "unit": "%"}, {"measurement": "residual activity", "setting": "AURKB (human); compound 1.0 µM", "value": 83, "unit": "%"}, {"measurement": "residual activity", "setting": "AURKB (human); compound 10.0 µM", "value": 42, "unit": "%"}, {"measurement": "residual activity", "setting": "BRSK2 (human); compound 1.0 µM", "value": 78, "unit": "%"}, {"measurement": "residual activity", "setting": "BRSK2 (human); compound 10.0 µM", "value": 64, "unit": "%"}, {"measurement": "residual activity", "setting": "BTK (human); compound 1.0 µM", "value": 83, "unit": "%"}, {"measurement": "residual activity", "setting": "BTK (human); compound 10.0 µM", "value": 88, "unit": "%"}, {"measurement": "residual activity", "setting": "CDK2 CCNA2 (human); compound 1.0 µM", "value": 82, "unit": "%"}, {"measurement": "residual activity", "setting": "CDK2 CCNA2 (human); compound 10.0 µM", "value": 65, "unit": "%"}, {"measurement": "residual activity", "setting": "CDK9 CCNT1 (human); compound 1.0 µM", "value": 89, "unit": "%"}, {"measurement": "residual activity", "setting": "CDK9 CCNT1 (human); compound 10.0 µM", "value": 83, "unit": "%"}, {"measurement": "residual activity", "setting": "CSK (human); compound 1.0 µM", "value": 97, "unit": "%"}, {"measurement": "residual activity", "setting": "CSK (human); compound 10.0 µM", "value": 103, "unit": "%"}, {"measurement": "residual activity", "setting": "DYRK2 (human); compound 1.0 µM", "value": 44, "unit": "%"}, {"measurement": "residual activity", "setting": "DYRK2 (human); compound 10.0 µM", "value": 21, "unit": "%"}, {"measurement": "residual activity", "setting": "EPHB2 (human); compound 1.0 µM", "value": 105, "unit": "%"}, {"measurement": "residual activity", "setting": "EPHB2 (human); compound 10.0 µM", "value": 103, "unit": "%"}, {"measurement": "residual activity", "setting": "HIPK2 (human); compound 1.0 µM", "value": 77, "unit": "%"}, {"measurement": "residual activity", "setting": "HIPK2 (human); compound 10.0 µM", "value": 88, "unit": "%"}, {"measurement": "residual activity", "setting": "LCK (mouse); compound 1.0 µM", "value": 92, "unit": "%"}, {"measurement": "residual activity", "setting": "LCK (mouse); compound 10.0 µM", "value": 95, "unit": "%"}, {"measurement": "residual activity", "setting": "MAP3K5 (human)", "value": 54, "unit": "%"}, {"measurement": "residual activity", "setting": "MAP4K5 (human); compound 1.0 µM", "value": 83, "unit": "%"}, {"measurement": "residual activity", "setting": "MAP4K5 (human); compound 10.0 µM", "value": 82, "unit": "%"}, {"measurement": "residual activity", "setting": "MAPK1 (human); compound 1.0 µM", "value": 79, "unit": "%"}, {"measurement": "residual activity", "setting": "MAPK1 (human); compound 10.0 µM", "value": 69, "unit": "%"}, {"measurement": "residual activity", "setting": "MAPK10 (human); compound 1.0 µM", "value": 60, "unit": "%"}, {"measurement": "residual activity", "setting": "MAPK10 (human); compound 10.0 µM", "value": 29, "unit": "%"}, {"measurement": "residual activity", "setting": "MAPK11 (human); compound 1.0 µM", "value": 57, "unit": "%"}, {"measurement": "residual activity", "setting": "MAPK11 (human); compound 10.0 µM", "value": 93, "unit": "%"}, {"measurement": "residual activity", "setting": "MAPKAPK3 (human); compound 1.0 µM", "value": 120, "unit": "%"}, {"measurement": "residual activity", "setting": "MAPKAPK3 (human); compound 10.0 µM", "value": 81, "unit": "%"}, {"measurement": "residual activity", "setting": "MINK1 (human); compound 1.0 µM", "value": 86, "unit": "%"}, {"measurement": "residual activity", "setting": "MINK1 (human); compound 10.0 µM", "value": 96, "unit": "%"}, {"measurement": "residual activity", "setting": "MST4 (human); compound 1.0 µM", "value": 101, "unit": "%"}, {"measurement": "residual activity", "setting": "MST4 (human); compound 10.0 µM", "value": 106, "unit": "%"}, {"measurement": "residual activity", "setting": "[2]; compound 1.0 µM", "value": 97, "unit": "%"}, {"measurement": "residual activity", "setting": "[2]; compound 10.0 µM", "value": 105, "unit": "%"}, {"measurement": "residual activity", "setting": "PAK4 (human); compound 1.0 µM", "value": 87, "unit": "%"}, {"measurement": "residual activity", "setting": "PAK4 (human); compound 10.0 µM", "value": 84, "unit": "%"}, {"measurement": "residual activity", "setting": "PAK7 (human)", "value": 88, "unit": "%"}, {"measurement": "residual activity", "setting": "PHKG1 (human); compound 1.0 µM", "value": 68, "unit": "%"}, {"measurement": "residual activity", "setting": "PHKG1 (human); compound 10.0 µM", "value": 23, "unit": "%"}, {"measurement": "residual activity", "setting": "PIM3 (human); compound 1.0 µM", "value": 77, "unit": "%"}, {"measurement": "residual activity", "setting": "PIM3 (human); compound 10.0 µM", "value": 72, "unit": "%"}, {"measurement": "residual activity", "setting": "PRKACA (human); compound 1.0 µM", "value": 85, "unit": "%"}, {"measurement": "residual activity", "setting": "PRKACA (human); compound 10.0 µM", "value": 94, "unit": "%"}, {"measurement": "residual activity", "setting": "TAOK1 (human); compound 1.0 µM", "value": 81, "unit": "%"}, {"measurement": "residual activity", "setting": "TAOK1 (human); compound 10.0 µM", "value": 93, "unit": "%"}, {"measurement": "residual activity", "setting": "TSSK1B (human); compound 1.0 µM", "value": 51, "unit": "%"}, {"measurement": "residual activity", "setting": "TSSK1B (human); compound 10.0 µM", "value": 19, "unit": "%"}, {"measurement": "residual activity", "setting": "TTBK2 (human); compound 1.0 µM", "value": 115, "unit": "%"}, {"measurement": "residual activity", "setting": "TTBK2 (human); compound 10.0 µM", "value": 97, "unit": "%"}, {"measurement": "residual activity", "setting": "ULK2 (human); compound 1.0 µM", "value": 97, "unit": "%"}, {"measurement": "residual activity", "setting": "ULK2 (human); compound 10.0 µM", "value": 84, "unit": "%"}, {"measurement": "residual activity", "setting": "WNK1 (human); compound 1.0 µM", "value": 62, "unit": "%"}, {"measurement": "residual activity", "setting": "WNK1 (human); compound 10.0 µM", "value": 99, "unit": "%"}, {"measurement": "residual activity", "setting": "ZAP70 (human); compound 1.0 µM", "value": 97, "unit": "%"}, {"measurement": "residual activity", "setting": "ZAP70 (human); compound 10.0 µM", "value": 81, "unit": "%"}]}]}
